# From US11802135B2, “Lysophosphatidic acid derivative” (MITSUBISHI TANABE PHARMA CORPORATION, priority 2021, dated 2023)
# Where a name gives a salt, the structure may show the parent alone. Read-outs that look alike come from different tables or passages of the source.
# What was measured:
# human LPA4 receptor = target: T1, human LPA4 receptor (Homo sapiens, UniProt Q99677); experiment: LPA4/SRE-luc reporter assay in RH7777 cells stably expressing human LPA4 receptor and SRE-Luc2; assay type: cell-based
# T1 construct: expressed in transfected cells; host or cells: rat hepatocellular carcinoma cell line RH7777, targeted integration at the rRosa26 site
# Method: (§1) A stably expressing cell line that constantly expresses the human LPA4 receptor and SRE-Luc2 was established by the gene targeting introduction method of the rat hepatocellular carcinoma cell line RH7777 into rRosa26 site. Similarly, stably expressing cell lines for human LPA1 receptor and SRE-Luc2 were also established. Each cell line was seeded on a collagen-coated dish and maintained in culture, and cells were collected with trypsin EDTA and the required number (5×10^3 cells/well) was seeded on a 96-well plate. After culturing overnight at 37° C., LPA (Avanti Polar Lipids, Inc.) or each Example compound diluted with an assay medium added or not added with BSA was added, and the cells were cultured at 37° C. for 6 hr. Thereafter, a luciferase detection reagent (Bright-Glo, Promega) was added, and the chemiluminescence amount was quantified with an Envision (registered trade mark) multi-label counter (PerkinElmer) and used as an index of agonist activity.
# (§2) The EC50 value of LPA or each Example compound was calculated using the […] Graph pad Prism for Windows ver.5.02 and ver.7.04. % Emax was expressed as the ratio of the maximum response (Emax) of LPA or each Example compound to the maximum response (Emax) of the positive control compound VPC 31144S (N-{(1S)-2-hydroxy-1-[(phosphonooxy)methyl]ethyl}(9Z) cctadec-9-enamide), with the Emax of the positive control compound VPC 31144S as 100%.
# Balb/c nu/nu mouse = experiment: Gel blood flow ratio in mice transplanted with Matrigel containing basicFGF; assay type: in vivo; conditions: 3 mg/kg tail vein once per day, day 5 to 7 after transplantation; vs solvent administration group, t-test p<0.01
# Method: A 5-week-old male Balb/c nu/nu mouse (CLEA Japan, Inc.) was subcutaneously transplanted with 500 μL of Matrigel (Corning) admixed with recombinant mouse basicFGF (Biobyt Ltd.) to a final concentration of 200 ng/mL. The test compound was dissolved in a 50% aqueous ethanol solution at a concentration of 10 mg/mL to give a stock solution, diluted with phosphate-buffered saline (PBS) immediately before administration, and used for consecutive administration into the tail vein of mouse at a dose of 3 mg/kg once per day from the 5th day to the 7th day of the transplantation. On the 7th day of transplantation, after 4 hours from the administration of the test compound, Genhance750 (PerkinElmer) was administered to the tail vein, and 20 min later under isoflurane anesthesia, whole body fluorescence at 800 nm was imaged using an in vivo analyzer (IVIS Spectrum, PerkinElmer) at an excitation wavelength of 745 nm. The gel blood flow ratio was calculated by dividing the radiance of Matrigel by the radiance of the auricle.
# human LPA1 receptor = target: T2, human LPA1 receptor (Homo sapiens, UniProt Q92633); experiment: LPA1/SRE-luc reporter assay in RH7777 cells stably expressing human LPA1 receptor and SRE-Luc2; assay type: cell-based
# T2 construct: expressed in transfected cells; host or cells: rat hepatocellular carcinoma cell line RH7777 (made 'similarly' to the LPA4 line)
# Method: as §1, §2
# [1] = Evaluation of chemical stability, preserved at 60° C. (sealed) for a week, UPLC; assay type: physicochemical
# Method: About 0.5 mg of each of test sample (lysophosphatidic acid (LPA) and Example compound 16) preserved at 60° C. (sealed) for a week and non-preserved sample (at the start of testing) was weighed, and dissolved in a mixed solution (1 mL) of acetonitrile/water (1:1) to prepare test solutions. Test was performed by the liquid chromatographic method under the following conditions, and individual peak area % was determined. It was measured by Waters ACQUITY UPLC under the following conditions. • Detector: photodiode array (measurement wavelength 220 nm) • Column: Waters ACQUITY BEH C18 (2.1 mm×100 mm, 1.7 μm) • Column temperature: constant temperature around 40° C. • Mobile phase: Solution A; […] ammonium acetate in water (pH 8.5), • Solution B; […] ammonium acetate in acetonitrile/water (17:3) (pH8.5) • Concentration gradient control: B % 2→100% (15 min) • Flow rate: 0.5 mL/min • Injection volume: […] <Experimental Results>
# [2] = test system: mouse lung cancer cell line LLC-1; experiment: Tumor volume in mice transplanted with LLC-1, combination with paclitaxel; assay type: in vivo
# Method: An 8-week-old female […] mouse (Nippon SLC) was subcutaneously transplanted with 1×10^6 cells/100 μL of mouse lung cancer cell line LLC-1 suspended in D-MEM medium containing 50% Matrigel (Corning). On the 9th day after transplantation of the cell line, 8 mice were grouped such that the tumor volume and body weight were uniform (Day 0). The tumor volume was calculated by measuring the minor axis and the major axis of the tumor with a vernier caliper (minor axis x minor axis x major axis/2). Example compound 16 was intraperitoneally administered every day from Day 0 at a dose of 30 mg/kg. As an existing anticancer drug, paclitaxel (paclitaxel injection, Pfizer) was intraperitoneally administered to mice at a dose of 20 mg/kg twice in total on Day 3 and Day 10. The tumor volume of each group was calculated every other day from Day 0 to Day 15. Phosphate-buffered saline in the same amount as the drug solution was administered to the solvent administration group.
# [3] = BSA not added, read-out: LPA4/SRE-luc EC50
# [4] = RH7777, read-out: LPA4/SRE-luc % Emax
# [5] = BSA not added, read-out: LPA1/SRE-luc EC50
# [6] = BSA added, read-out: LPA4/SRE-luc EC50
# [7] = RH7777, BSA added, Emax of positive control VPC 31144S as 100%, read-out: LPA4/SRE-luc % Emax
# [8] = BSA added, read-out: LPA1/SRE-luc EC50
# T2 sequence (Q92633 whole entry): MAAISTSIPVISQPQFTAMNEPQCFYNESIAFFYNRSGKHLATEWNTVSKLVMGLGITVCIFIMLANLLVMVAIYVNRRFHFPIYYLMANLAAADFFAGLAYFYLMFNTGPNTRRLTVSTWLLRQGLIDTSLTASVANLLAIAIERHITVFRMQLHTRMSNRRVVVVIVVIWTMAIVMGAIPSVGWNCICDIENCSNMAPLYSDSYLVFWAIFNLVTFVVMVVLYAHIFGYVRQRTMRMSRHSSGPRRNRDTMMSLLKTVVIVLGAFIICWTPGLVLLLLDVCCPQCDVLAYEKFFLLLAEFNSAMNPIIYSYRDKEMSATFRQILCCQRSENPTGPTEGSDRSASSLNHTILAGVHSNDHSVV
# T1 sequence (Q99677 whole entry): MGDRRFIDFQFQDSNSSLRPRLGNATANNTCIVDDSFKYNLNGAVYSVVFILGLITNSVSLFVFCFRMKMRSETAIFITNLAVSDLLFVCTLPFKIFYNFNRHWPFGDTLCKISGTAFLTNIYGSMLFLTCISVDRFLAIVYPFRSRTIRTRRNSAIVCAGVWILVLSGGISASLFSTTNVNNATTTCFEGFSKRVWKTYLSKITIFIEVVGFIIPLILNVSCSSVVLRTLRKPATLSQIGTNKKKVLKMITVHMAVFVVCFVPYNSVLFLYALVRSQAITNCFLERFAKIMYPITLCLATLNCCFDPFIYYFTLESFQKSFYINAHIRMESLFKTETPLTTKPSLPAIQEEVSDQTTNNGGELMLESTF
SMILES,EC50 (human LPA4 receptor; [6]) [nM],Emax (human LPA4 receptor; [7]) [%],EC50 (human LPA1 receptor; [8]) [nM],gel blood flow ratio (Balb/c nu/nu mouse),further results
"CCc1ccc(CCCCCCCCC(=O)N2CC(OP(=O)(O)O)C2)cc1 [Example 16, 1-[9-(4-Ethylphenyl)nonanoyl]azetidin-3-yl dihydrogen phosphate]",–,–,–,significantly increased,EC50 (human LPA4 receptor; [3]): 12 nM; Emax (human LPA4 receptor; [4]): 162%; EC50 (human LPA1 receptor; [5]): > 10000 nM
"CCc1ccc(CCCCCCCCC(=O)N2CC(OP(=O)(O)O)C2)cc1 [Example compound 16, 1-[9-(4-Ethylphenyl)nonanoyl]azetidin-3-yl dihydrogen phosphate]",–,–,–,–,"chemical stability in comparison with LPA ([1]; 60° C. (sealed) for a week): high chemical stability; total ratio (%) of increment of related substances ([1]; 60° C., humidity without artificial control, 1 week): 1.29%; tumor volume on Day 15 ([2]; 30 mg/kg i.p. every day combined with paclitaxel 20 mg/kg, vs paclitaxel alone group, t-test p<0.01): further reduced significantly"
"CCCCc1ccc(CCCCCCCCC(=O)N2CC(OP(=O)(O)O)C2)cc1 [Example compound 70, 1-[9-(4-Butylphenyl)nonanoyl]azetidin-3-yl dihydrogen phosphate ammonium salt]",–,–,–,significantly increased,"EC50 (human LPA4 receptor; [3]): < 41 nM; Emax (human LPA4 receptor; RH7777, BSA not added, Emax of positive control VPC 31144S as 100%, read-out: LPA4/SRE-luc % Emax): 239%; EC50 (human LPA1 receptor; [5]): > 10000 nM"
"O=C(CCCCCCCCc1ccc(-c2ccccc2)cc1)N1CC(OP(=O)(O)O)C1 [Example compound 82, 1-[9-(Biphenyl-4-yl)nonanoyl]azetidin-3-yl dihydrogen phosphate]",1.9,129,> 10000,significantly increased,–
"CC(C)(C)c1ccc(CCCCCCCCC(=O)N2CC(OP(=O)(O)O)C2)cc1 [Example compound 84, 1-[9-(4-tert-Butylphenyl)nonanoyl]azetidin-3-yl dihydrogen phosphate]",4.1,94,> 3000,significantly increased,–
"COc1ccc(CN(CCOP(=O)(O)O)C(=O)CCCCc2ccc(OCCc3ccc(OC(F)(F)F)cc3)cc2)cc1 [Example compound 115, 2-{(4-Methoxybenzyl)[5-(4-{2-[4-(trifluoromethoxy)phenyl]ethoxy}phenyl)pentanoyl]amino}ethyl dihydrogen phosphate ammonium salt]",< 41,114,> 10000,–,–
"CCCCCCCCCCCOc1cccc(-c2ccnc(NC[C@@H](C)OP(O)(O)=S)c2)c1 [Example compound 138, O-[(2R)-1-({4-[3-(Undecyloxy)phenyl]pyridin-2-yl}amino)propan-2-yl] dihydrogen phosphorothioate-ammonium salt]",–,–,–,–,EC50 (human LPA4 receptor): < 41 nM; Emax (human LPA4 receptor; [4]): 73%; EC50 (human LPA1 receptor): > 10000 nM
"CC(=O)O[C@H]1C(=O)[C@@]2(C)[C@H]([C@H](OC(=O)c3ccccc3)[C@]3(O)C[C@H](OC(=O)[C@H](O)[C@@H](NC(=O)c4ccccc4)c4ccccc4)C(C)=C1C3(C)C)[C@]1(OC(C)=O)CO[C@@H]1C[C@@H]2O [paclitaxel, reference compound]",–,–,–,–,"tumor volume on Day 15 ([2]; paclitaxel alone 20 mg/kg i.p. Day 3 and Day 10, vs solvent administration group, t-test p<0.05): significantly smaller"

# Now from value to compound, other results behind:
EC50 (human LPA4 receptor; [6]) [nM],Emax (human LPA4 receptor; [7]) [%],EC50 (human LPA1 receptor; [8]) [nM],SMILES,gel blood flow ratio (Balb/c nu/nu mouse),further results
< 41,114,> 10000,"CCCCCCc1ccc(CCCCCCCCC(=O)N2CC(OP(=O)(O)O)C2)cc1 [Example compound 118, 1-[9-(4-Hexylphenyl)nonanoyl]azetidin-3-yl dihydrogen phosphate]",–,–
< 41,120,> 10000,"COc1ccc(CN(CCOP(=O)(O)O)C(=O)CCCCCc2cccc(CCCCC3CCCCC3)c2)cc1 [Example compound 129, 2-[{6-[3-(4-Cyclohexylbutyl)phenyl]hexanoyl}(4-methoxybenzyl)amino]ethyl dihydrogen phosphate ammonium salt]",–,–
< 41,101,> 10000,"CCCCCCCCCCCOc1cccc(-c2ccnc(NC[C@@H](C)OP(=O)(O)O)c2)c1 [Example compound 133, (2R)-1-({4-[3-(Undecyloxy)phenyl]pyridin-2-yl}amino)propan-2-yl dihydrogen phosphate]",–,–
< 41,87,> 10000,"CCCCCCCCCCCOc1cccc(-c2ccnc(NC[C@@H](C)OP(=O)(O)O)n2)c1 [Example compound 134, (2R)-1-({4-[3-(Undecyloxy)phenyl]pyrimidinyl}amino)propan-2-yl dihydrogen phosphate]",–,–
43,103,> 10000,"CCCCCCCCCCCOc1cccc(-c2ccnc(N[C@@H]3CCC[C@@H]3OP(=O)(O)O)c2)c1 [Example compound 142, (1S,2R)-2-({4-[3-(Undecyloxy)phenyl]pyridin-2-yl}amino)cyclopentyl dihydrogen phosphate ammonium salt]",–,–
